Results from patent US11272841B2, “Indicator fluids, systems, and methods for assessing movement of substances within, to or from a cerebrospinal fluid, brain or spinal cord compartment of a cranio-spinal cavity of a human” (BRAINWIDESOLUTIONS AS, priority 2017, dated 2022).
Marks after values point to notes of the source that are not given here.

Test: Repeated standardized T1-weighted MRI: signal units (SU) in ROIs of CSF, venous space and brain tissue after intrathecal gadobutrol, iNPH versus reference patients (Tables 2-4, FIG. 14b, 16)
Type: in vivo, human
Experimental: The different features of Aspect 2 are based on novel in-vivo observations in humans. […] In the following paragraphs, these novel observations in humans are commented on in more detail. In these studies, the MRI contrast agent gadobutrol served as indicator fluid and MRI SUs were indication signals. MRI T1 weighted signal units were measured when gadobutrol was present within CSF after having been administered to the CSF compartment, and were compared with MR images having identical sequence parameter settings and with no gadobutrol present in CSF. […] With a MW of 605 Da, gadobutrol is a rather large molecule in comparison to the MW of water (H2O) molecule, which is 18 Da. Clearance of gadobutrol is then indicative of clearance of other substances with similar properties.
We explored both movement of the contrast agent within, to, and from the cranio-spinal cavity, including CSF, brain and spinal cord compartment, and from the cranio-spinal cavity to extra-cranial LNs. With gadobutrol present within CSF, blood level concentrations of contrast agents were determined at various time point. The repeated MRI acquisitions made it possible to create clearance curves for one or more pixels, defined by ROIs. ROIs were placed within CSF compartments, brain and spinal cord tissue compartments, and extracranial LN tissue compartments. By means of MRI, we could create graphic curves illustrating clearance of substances (clearance illustrating curves) for defined ROIs built up of a defied number of pixels for each individual. For details of said clearance curves, see FIG. 7. The establishment of clearance curves was dependent on repeated MRI acquisitions over a long period.
Using MRI SUs, we created clearance illustrating curves, see FIG. 7, for the individual patients as well as for groups of individuals. Tables 2-4 illustrate various examples of parameter values of the clearance illustrating curves.
Table 2, as discussed with FIG. 2, illustrates how maximum increase in SUs varies between individuals and patient groups. Tables 3 and 4 compare such clearance curve parameters from two patient groups, namely iNPH and reference (i.e. control) patients, illustrating inter-individual differences and differences between patient groups. These patient groups represent no limitation of the invention as it may be used in various patient groups such as Alzheimer's and dementia in general, brain tumor (e.g. astrocytoma), multiple sclerosis and inflammatory brain disease, stroke (brain infarction or bleeds), sleep disturbances, neurodegenerative disease, CSF circulation disorders, traumatic brain injury, neurometabolic diseases, glaucoma, chronic headache and migraine, and in assessment of ageing in general.
Even though perfect match of ROIs of repeated images may be difficult to obtain, the second aspect of the invention is facilitated by that image acquisition parameters at repeated MRI acquisitions are kept fixed and thus standardized. […] Further, to make best possible alignments of pixels, methods for alignment of repeated MRI acquisitions need to be implemented. Methods for alignment of repeated MRI images belong to prior art. Aids to improve alignment may incorporate landmark locations such as the cranial vault, pineal gland, and ventricular system.
Each image acquisition lasted 6 minutes and 29 seconds.

[1] = Brain parenchyma: Frontal horn, Reference
[2] = Brain parenchyma: Frontal horn, iNPH
[3] = Brain parenchyma: Inferior frontal gyrus (IFG), Reference
[4] = Brain parenchyma: Inferior frontal gyrus (IFG), iNPH
[5] = Brain parenchyma: Pons, Reference
[6] = Brain parenchyma: Precentral gyrus, Reference
[7] = Brain parenchyma: Precentral gyrus, iNPH
[8] = Brain parenchyma: Thalamus, Reference
[9] = Brain parenchyma: Thalamus, iNPH
[10] = CSF space: 3rd Ventricle, Reference
[11] = CSF space: 4th Ventricle, Reference
[12] = CSF space: Foramen Magnum, Reference
[13] = CSF space: Foramen Magnum, iNPH
[14] = CSF space: Lateral Ventricle, Reference

Enhancement coefficient (SU/min) [1]: 0.05 SU/min
Max increase (SU) [1]: 7.9 ± 7.9 SU
Time to peak [1]: 1109.8 ± 585.6 min
Enhancement coefficient (SU/min) [2]: 0.04 SU/min
Max increase (SU) [2]: 48.5 ± 32.8^b SU
Time to peak [2]: 1349.3 ± 350.9 min
Enhancement coefficient (SU/min) [3]: 0.02 SU/min
Max increase (SU) [3]: 23.8 ± 20.9 SU
Time to peak [3]: 1421.3 ± 53.1 min
Enhancement coefficient (SU/min) [4]: 0.03 SU/min
Max increase (SU) [4]: 39.1 ± 25.3 SU
Time to peak [4]: 1358.0 min
Enhancement coefficient (SU/min) [5]: 0.08 SU/min
Time to peak [5]: 929.4 ± 676.9 min
Enhancement coefficient (SU/min) (Brain parenchyma: Pons, iNPH): 0.03 SU/min
Time to peak (Brain parenchyma: Pons, iNPH): 1090.0 ± 602.3 min
Enhancement coefficient (SU/min) [6]: 0.03 SU/min
Max increase (SU) [6]: 7.8 ± 11.2 SU
Time to peak [6]: 742.8 ± 727.9 min
Enhancement coefficient (SU/min) [7]: 0.04 SU/min
Max increase (SU) [7]: 9.0 ± 8.3 SU
Time to peak [7]: 900.0 ± 686.4 min
Enhancement coefficient (SU/min) [8]: 0.01 SU/min
Max increase (SU) [8]: 9.0 ± 7.1 SU
Time to peak [8]: 1288.4 ± 386.3 min
Enhancement coefficient (SU/min) [9]: 0.01 SU/min
Max increase (SU) [9]: 13.0 ± 6.8 SU
Time to peak [9]: 1261.7 ± 462.6 min
Clearance coefficient (SU/min) [10]: −0.09 ± 0.08 SU/min
Clearance time [10]: 1135.3 ± 74.2 min
Enhancement coefficient (SU/min) [10]: 0.4 SU/min
Max increase (SU) [10]: 115.1 ± 103.8 SU
Max reduction (SU) [10]: −103.7 ± 83.9 SU
Time to peak [10]: 253.8 ± 133.2 min
Clearance coefficient (SU/min) (CSF space: 3rd Ventricle, iNPH): −0.10 ± 0.07 SU/min
Clearance time (CSF space: 3rd Ventricle, iNPH): 1234.3 ± 116.2 min
Enhancement coefficient (SU/min) (CSF space: 3rd Ventricle, iNPH): 1.4 SU/min
Max increase (SU) (CSF space: 3rd Ventricle, iNPH): 243.6 ± 136.9^a SU
Max reduction (SU) (CSF space: 3rd Ventricle, iNPH): −114.4 ± 76.8 SU
Time to peak (CSF space: 3rd Ventricle, iNPH): 615.3 ± 587.5 min
Clearance coefficient (SU/min) [11]: −0.18 ± 0.08 SU/min
Clearance time [11]: 1287.6 ± 105.9 min
Enhancement coefficient (SU/min) [11]: 6.3 SU/min
Max increase (SU) [11]: 236.0 ± 142.9 SU
Max reduction (SU) [11]: −232.6 ± 103.7 SU
Time to peak [11]: 123.4 ± 98.1 min
Clearance coefficient (SU/min) (CSF space: 4th Ventricle, iNPH): −0.19 ± 0.1 SU/min
Clearance time (CSF space: 4th Ventricle, iNPH): 1234.4 ± 109.1 min
Enhancement coefficient (SU/min) (CSF space: 4th Ventricle, iNPH): 5.6 SU/min
Max increase (SU) (CSF space: 4th Ventricle, iNPH): 386.5 ± 138.2^a SU
Max reduction (SU) (CSF space: 4th Ventricle, iNPH): −231.6 ± 128.1 SU
Time to peak (CSF space: 4th Ventricle, iNPH): 286.7 ± 322.9 min
Clearance coefficient (SU/min) [12]: −0.28 ± 0.08 SU/min
Clearance time [12]: 1294.4 ± 154.5 min
Enhancement coefficient (SU/min) [12]: 17.7 SU/min
Max increase (SU) [12]: 426.0 ± 123.0 SU
Max reduction (SU) [12]: −358.1 ± 117.7 SU
Time to peak [12]: 129.4 ± 156.7 min
Clearance coefficient (SU/min) [13]: −0.16 ± 0.07^b SU/min
Clearance time [13]: 1264.3 ± 116.1 min
Enhancement coefficient (SU/min) [13]: 5.9 SU/min
Max increase (SU) [13]: 398.3 ± 108.0 SU
Max reduction (SU) [13]: −206.7 ± 90.8^b SU
Time to peak [13]: 174.5 ± 94.2 min
Clearance coefficient (SU/min) [14]: −0.07 ± 0.01 SU/min
Clearance time [14]: 1098.0 ± 12.5 min
Enhancement coefficient (SU/min) [14]: 0.13 SU/min
Max increase (SU) [14]: 42.5 ± 51.9 SU
Max reduction (SU) [14]: −72.3 ± 11.9 SU
Time to peak [14]: 402.6 ± 446.1 min
Compound: O=C([O-])CN1CCN(CC(=O)[O-])CCN([C@H](CO)[C@H](O)CO)CCN(CC(=O)[O-])CC1.[Gd+3] (racemic) [gadobutrol]
